Reference: patent publication US9273029B2, “Pyridine-and pyrazine derivatives” (Merck Patent GmbH, priority 2011, dated 2016)

Assays:
[1] = molecular target: TANK binding kinase (TBK1) (Homo sapiens (Human), UniProt Q9UHD2); test: TBK1 enzyme assay (384-well Flashplate kinase assay); assay type: biochemical; conditions: 10 μM ATP, 120 Min at 30° C.
Protocol: The kinase assay is performed as 384-well Flashplate assay (for e.g. Topcount measurement. 0.6 nM TANK binding kinase (TBK1), 800 nM biotinylated MELK-derived peptide (Biotin-Ah-Ah-[…]) SEQ ID NO: 2 and 10 μM ATP (spiked with 0.25 μCi ^33P-ATP/well) are incubated in a total volume of 50 μl (10 mM MOPS, 10 mM Mg-acetat, 0.1 mM EGTA, 1 mM DTT, 0.02% Brij35, 0.1% BSA, pH 7.5) with or without test compound for 120 Min at 30° C. The reaction is stopped with 25 μl 200 mM EDTA. After 30 Min at room temperature the liquid is removed and each well washed thrice with 100 μl 0.9% sodium chloride solution. Nonspecific reaction is determined in presence of 100 nM Staurosporine. Radioactivity is measured in a Topcount (PerkinElmer). Results (e.g. IC50-values) are calculated with program tools provided by the IT-department (e.g. AssayExplorer, Symyx).

IKKε = IKKε (Homo sapiens (Human), UniProt Q14164); test: IKKε kinase assay (384-well Flashplate); assay type: biochemical; conditions: 10 μM ATP, 2 hours at 30° C.; read-out: IKKε enzyme assay IC50
Protocol: IKKε—Kinase Assay (IKKepsilon)
The kinase assay is performed either as 384-well Flashplate assay (for e.g. Topcount measurement). 1 nM IKKε, 800 nM biotinylated IκBα(19-42) peptide (Biotin-C6-C6-[…]) SEQ ID NO: 1 and 10 μM ATP (spiked with 0.3 μCi ^33P-ATP/well) are incubated in a total volume of 50 μl (10 mM MOPS, 10 mM Mg-acetat, 0.1 mM EGTA, 1 mM Dithiothreitol,0.02% Brij35, 0.1% BSA, 0.1% BioStab, pH 7.5) with or without test compound for 2 hours at 30° C. The reaction is stopped with 25 μl 200 mM EDTA. After 30 Min at room temperature the liquid is removed and each well washed thrice with 100 μl 0.9% sodium chloride solution. Non-specific reaction is determined in presence of 3 μM MSC2119074 (BX-795). Radioactivity is measured with Topcount (PerkinElmer). Results (e.g. IC50-values) are calculated with program tools provided by the IT-department (e.g. AssayExplorer, Symyx).

Chain of TANK binding kinase (TBK1) (Q9UHD2 whole entry): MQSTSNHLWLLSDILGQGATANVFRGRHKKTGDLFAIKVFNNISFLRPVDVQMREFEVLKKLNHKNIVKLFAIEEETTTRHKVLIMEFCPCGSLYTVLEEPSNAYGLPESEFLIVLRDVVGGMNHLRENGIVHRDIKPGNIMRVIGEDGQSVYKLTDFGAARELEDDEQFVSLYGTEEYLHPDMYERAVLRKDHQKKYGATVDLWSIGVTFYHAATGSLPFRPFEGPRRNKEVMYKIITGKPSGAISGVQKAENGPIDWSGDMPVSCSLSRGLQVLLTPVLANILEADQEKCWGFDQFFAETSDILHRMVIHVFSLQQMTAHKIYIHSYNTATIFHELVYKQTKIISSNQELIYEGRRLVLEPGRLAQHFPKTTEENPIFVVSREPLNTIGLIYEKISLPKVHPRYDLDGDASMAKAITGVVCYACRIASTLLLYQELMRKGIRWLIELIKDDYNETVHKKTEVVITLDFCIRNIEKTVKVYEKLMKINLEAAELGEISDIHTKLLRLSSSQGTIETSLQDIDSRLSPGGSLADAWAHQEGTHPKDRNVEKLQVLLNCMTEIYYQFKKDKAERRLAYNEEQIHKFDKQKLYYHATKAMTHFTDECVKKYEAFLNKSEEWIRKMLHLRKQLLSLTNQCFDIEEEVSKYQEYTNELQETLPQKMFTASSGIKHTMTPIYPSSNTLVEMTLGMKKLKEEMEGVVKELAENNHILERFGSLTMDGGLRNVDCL
Chain of IKKε (Q14164 whole entry): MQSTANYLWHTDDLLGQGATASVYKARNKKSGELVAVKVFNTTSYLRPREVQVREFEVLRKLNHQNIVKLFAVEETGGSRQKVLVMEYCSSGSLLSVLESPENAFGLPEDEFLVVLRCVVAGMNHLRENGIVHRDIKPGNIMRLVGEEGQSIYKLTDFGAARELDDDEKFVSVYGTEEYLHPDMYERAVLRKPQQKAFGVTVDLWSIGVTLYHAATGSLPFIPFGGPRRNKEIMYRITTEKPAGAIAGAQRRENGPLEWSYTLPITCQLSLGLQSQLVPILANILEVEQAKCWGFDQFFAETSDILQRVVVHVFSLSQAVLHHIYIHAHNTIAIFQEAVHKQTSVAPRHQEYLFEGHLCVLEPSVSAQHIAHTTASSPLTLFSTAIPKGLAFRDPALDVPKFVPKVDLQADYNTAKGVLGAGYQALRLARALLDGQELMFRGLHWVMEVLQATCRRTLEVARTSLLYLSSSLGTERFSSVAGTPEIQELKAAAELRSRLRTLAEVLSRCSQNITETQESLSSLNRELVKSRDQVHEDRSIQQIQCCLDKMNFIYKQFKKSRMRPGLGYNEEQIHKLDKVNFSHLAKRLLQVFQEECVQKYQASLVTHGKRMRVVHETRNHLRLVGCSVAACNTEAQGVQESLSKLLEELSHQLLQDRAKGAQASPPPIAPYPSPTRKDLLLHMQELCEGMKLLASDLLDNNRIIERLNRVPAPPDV

Nc1ncc(-c2cc3ccccc3[nH]2)cc1C(=O)Nc1ccncc1 [Compound A55, 2-Amino-5-(1H-indol-2-yl)-N-pyridin-4-yl-nicotinamide]
IC50 [1]: 0.39 µM

Nc1ncc(-c2cnn(CCO)c2)cc1C(=O)Nc1ccncc1 [Compound A42, 2-Amino-5-[1-(2-hydroxy-ethyl)-1H-pyrazol-4-yl]-N-pyridin-4-yl-nicotinamide]
IC50 (IKKε): 1.7 µM | IC50 [1]: 0.67 µM

Nc1ncc(-c2csc(CN3CCOCC3)c2)cc1C(=O)Nc1ccncc1 [Compound A43, 2-Amino-5-(5-morpholin-4-ylmethyl-thiophen-3-yl)-N-pyridin-4-yl-nicotinamide]
IC50 (IKKε): 0.33 µM | IC50 [1]: 0.14 µM

Nc1ncc(-c2cc3ccccc3s2)cc1C(=O)Nc1ccncc1 [Compound A52, 2-Amino-5-benzo[b]thiophen-2-yl-N-pyridin-4-yl-nicotinamide]
IC50 [1]: 0.63 µM

NC(=O)Cn1cc(-c2cnc(N)c(C(=O)Nc3ccncc3)c2)cn1 [Compound A25, 2-Amino-5-(1-carbamoylmethyl-1H-pyrazol-4-yl)-N-pyridin-4-yl-nicotinamide]
IC50 (IKKε): 0.53 µM | IC50 [1]: 0.36 µM

Nc1ncc(-c2ccc(S(N)(=O)=O)cc2)cc1C(=O)Nc1ccncc1 [Compound A7, 2-Amino-N-pyridin-4-yl-5-(4-sulfamoyl-phenyl)-nicotinamide]
IC50 (IKKε): 1.8 µM | IC50 [1]: 0.15 µM

Nc1ncc(-c2ccsc2)cc1C(=O)Nc1ccncc1 [Compound A49, 2-Amino-N-pyridin-4-yl-5-thiophen-3-yl-nicotinamide]
IC50 (IKKε): 0.93 µM | IC50 [1]: 0.41 µM

Nc1ncc(-c2ccc(C(=O)O)cc2)cc1C(=O)Nc1ccncc1 [Compound A31, 4-[6-Amino-5-(pyridin-4-ylcarbamoyl)-pyridin-3-yl]-benzoic acid]
IC50 (IKKε): 0.99 µM | IC50 [1]: 0.4 µM

Nc1ncc(-c2ccc(CN3CCCC3)s2)cc1C(=O)Nc1ccncc1 [Compound A2, 2-Amino-N-pyridin-4-yl-5-(5-pyrrolidin-1-ylmethyl-thiophen-2-yl)-nicotinamide]
IC50 (IKKε): 0.11 µM | IC50 [1]: 0.13 µM

Nc1ncc(-c2ccc(CN3CCOCC3)s2)cc1C(=O)Nc1ccnc2ccoc12 [Compound A29, 2-Amino-N-furo[3,2-b]pyridin-7-yl-5-(5-morpholin-4-ylmethyl-thiophen-2-yl)-nicotinamide]
IC50 (IKKε): 2.4 µM | IC50 [1]: 0.89 µM

COCCn1cc(-c2cnc(N)c(C(=O)Nc3ccnc(C)c3)c2)cn1 [Compound A20, 2-Amino-5-[1-(2-methoxy-ethyl)-1H-pyrazol-4-yl]-N-(2-methyl-pyridine-4-yl)-nicotinamide]
IC50 (IKKε): 0.61 µM | IC50 [1]: 1.2 µM

COCCn1cc(-c2cnc(N)c(C(=O)Nc3ccncc3Cl)c2)cn1 [Compound A38, 2-Amino-N-(3-chloro-pyridin-4-yl)-5-[1-(2-methoxy-ethyl-)-1H-pyrazol-4-yl]nicotinamide]
IC50 (IKKε): 1.5 µM | IC50 [1]: 0.74 µM

Nc1ncc(-c2coc3ccccc23)cc1C(=O)Nc1ccncc1 [Compound A60, 2-Amino-5-benzofuran-3-yl-N-pyridin-4-yl-nicotinamide]
IC50 (IKKε): 0.3 µM | IC50 [1]: 0.23 µM

Nc1ncc(-c2cccc(-n3cccn3)c2)cc1C(=O)Nc1ccnnc1 [Compound A18, 2-Amino-5-(3-pyrazol-1-yl-phenyl)-N-pyridazin-4-yl-nicotinamide]
IC50 (IKKε): 0.64 µM | IC50 [1]: 0.79 µM

COCCn1cc(-c2cnc(N)c(C(=O)Nc3ccncc3C)c2)cn1 [Compound A22, 2-Amino-5-[1-(2-methoxy-ethyl)-1H-pyrazol-4-yl]-N-(3-methyl-pyridin-4-yl)-nicotinamide]
IC50 (IKKε): 2.4 µM | IC50 [1]: 0.69 µM

Cn1ccc(-c2cnc(N)c(C(=O)Nc3ccncc3)c2)n1 [Compound A47, 2-Amino-5-(1-methyl-1H-pyrazol-3-yl)-N-pyridin-4-yl-nicotinamide]
IC50 (IKKε): 0.38 µM | IC50 [1]: 0.33 µM

CC(=O)Nc1cc(NC(=O)c2cc(-c3ccc(CN4CCOCC4)s3)cnc2N)ccn1 [Compound A36, N-(2-Acetylamino-pyridin-4-yl)-2-amino-5-(5-morpholin-4-ylmethyl-thiophen-2-yl)-nicotinamide]
IC50 (IKKε): 0.54 µM | IC50 [1]: 0.19 µM

Nc1ncc(-c2cn[nH]c2)cc1C(=O)Nc1ccncc1 [Compound A34, 2-Amino-5-(1H-pyrazol-4-yl)-N-pyridin-4-yl-nicotinamide]
IC50 (IKKε): 0.74 µM | IC50 [1]: 0.28 µM

Nc1ncc(-c2cnn(Cc3ccccc3)c2)cc1C(=O)Nc1ccncc1 [Compound A46, 2-Amino-5-(1-benzyl-1H-pyrazol-4-yl)-N-pyridin-4-yl-nicotinamide]
IC50 (IKKε): 0.24 µM | IC50 [1]: 0.12 µM

Nc1ncc(-c2cnn(CCN3CCOCC3)c2)cc1C(=O)Nc1ccncc1 [Compound A51, 2-Amino-5-[1-(2-morpholin-4-yl-ethyl)-1H-pyrazol-4-yl]-N-pyridin-4-yl-nicotinamide]
IC50 (IKKε): 0.27 µM | IC50 [1]: 0.74 µM

Cn1cc(-c2cnc(N)c(C(=O)Nc3ccncc3)c2)cn1 [Compound A61, 2-Amino-5-(1-methyl-1H-pyrazol-4-yl)-N-pyridin-4-yl-nicotinamide]
IC50 (IKKε): 0.48 µM | IC50 [1]: 0.16 µM

Nc1ncc(-c2ccc(CN3CCOCC3)s2)nc1C(=O)Nc1ccncc1 [Compound A10, 3-Amino-6-(5-morpholin-4-ylmethyl-thiophen-2-yl)-pyrazine-2-carboxylic acid pyridin-4-ylamide]
IC50 [1]: 1 µM

Cc1cnccc1NC(=O)c1cc(-c2ccc(-n3cccn3)cc2)cnc1N [Compound A19, 2-Amino-N-(3-methyl-pyridin-4-yl)-5-(4-pyrazol-1-yl-phenyl)-nicotinamide]
IC50 (IKKε): 2.8 µM | IC50 [1]: 1 µM

COCCn1cc(-c2cnc(N)c(C(=O)Nc3ccnc4ccoc34)c2)cn1 [Compound A28, 2-Amino-N-furo[3,2-b]pyridin-7-yl-5-[1-(2-methoxy-ethyl)-1H-pyrazol-4-yl]-nicotinamide]
IC50 (IKKε): 2.9 µM | IC50 [1]: 1.2 µM

Nc1ncc(-c2cc[nH]c2)cc1C(=O)Nc1ccncc1 [Compound A59, 2-Amino-N-pyridin-4-yl-5-(1H-pyrrol-3-yl)-nicotinamide]
IC50 (IKKε): 0.83 µM | IC50 [1]: 0.15 µM

CC(=O)c1ccc(-c2cnc(N)c(C(=O)Nc3ccncc3)c2)s1 [Compound A53, 5-(5-Acetyl-thiophen-2-yl)-2-amino-N-pyridin-4-yl-nicotinamide]
IC50 (IKKε): 0.51 µM | IC50 [1]: 0.16 µM

Nc1ncc(-c2ccc(CN3CCOCC3)s2)cc1C(=O)Nc1ccncc1 [Compound A54, 2-Amino-5-(5-morpholin-4-ylmethyl-thiophen-2-yl)-N-pyridin-4-yl-nicotinamide]
IC50 (IKKε): 0.45 µM | IC50 [1]: 0.088 µM

Cc1cc(NC(=O)c2cc(-c3csc(CN4CCOCC4)c3)cnc2N)ccn1 [Compound A15, 2-Amino-N-(2-methyl-pyridin-4-yl)-5-(5-morpholin-4-ylmethyl-thiophen-3-yl)-nicotinamide]
IC50 (IKKε): 2 µM | IC50 [1]: 0.67 µM

COC(=O)c1cnccc1NC(=O)c1cc(-c2ccc(CN3CCOCC3)s2)cnc1N [Compound A35, 4-{[2-Amino-5-(5-morpholin-4-ylmethyl-thiophen-2-yl)-pyridine-3-carbonyl]-amino}-nicotinic acid methyl ester]
IC50 [1]: 0.45 µM

Nc1ncc(-c2ccc(CN3CCOCC3)s2)cc1C(=O)Nc1ccncc1Cl [Compound A33, 2-Amino-N-(3-chloro-pyridin-4-yl)-5-(5-morpholin-4-ylmethyl-thiophen-2-yl)-nicotinamide]
IC50 (IKKε): 0.6 µM | IC50 [1]: 0.25 µM

COCCn1cc(-c2cnc(N)c(C(=O)Nc3ccnnc3)c2)cn1 [Compound A24, 2-Amino-5-[1-(2-methoxy-ethyl)-1H-pyrazol-4-yl]-N-pyridazin-4-yl-nicotinamide]
IC50 (IKKε): 0.89 µM | IC50 [1]: 1.2 µM

Nc1ncc(-c2ccc(CN3CCCCC3)s2)nc1C(=O)Nc1ccncc1 [Compound A13, 3-Amino-6-(5-piperidin-1-ylmethyl-thiophen-2-yl)-pyrazine-2-carboxylic acid pyridin-4-ylamide]
IC50 (IKKε): 1.9 µM | IC50 [1]: 4 µM

Cc1ccc(-c2cccc(-c3cnc(N)c(C(=O)Nc4ccncc4)c3)c2)cc1 [Compound A23, 2-Amino-5-(4′-methyl-biphenyl-3-yl)-N-pyridin-4-yl-nicotinamide]
IC50 (IKKε): 2.2 µM | IC50 [1]: 7.4 µM

Nc1ncc(-c2ccoc2)cc1C(=O)Nc1ccncc1 [Compound A45, 2-Amino-5-furan-3-yl-N-pyridin-4-yl-nicotinamide]
IC50 (IKKε): 0.14 µM | IC50 [1]: 0.61 µM

Cn1cccc1-c1cnc(N)c(C(=O)Nc2ccncc2)c1 [Compound A50, 2-Amino-5-(1-methyl-1H-pyrrol-2-yl)-N-pyridin-4-yl-nicotinamide]
IC50 [1]: 0.32 µM
